Results: the NIST ThermoML archive (doi:10.1016/j.jct.2019.03.023)
± gives the expanded uncertainty stated by the source.

Details: isochoric method

CC(C)O [propan-2-ol]
mass density [kg/m3]
Details	Gas	Liquid
380.35 K	–	697.69 ± 1.4
451.83 K	–	581.06 ± 1.2
507.95 K	–	343.1 ± 2.4
508.16 K	–	329.2 ± 2.8
508.28 K	–	324.5 ± 2.8
508.51 K	234.3 ± 4.5	–
508.68 K	–	293.3 ± 3.2
508.69 K	–	288.99 ± 3.5
508.7 K	255.8 ± 4.6	–
508.71 K	–	281.9 ± 4
508.72 K	266.3 ± 6.1	274 ± 4.6
